Results published in ChEMBL document CHEMBL1201861, “Genomics of Drug Sensitity in Cancer screening data, Wellcome Trust Sanger Institute”.

Key:
Experiment in all cases: cells
SCC-15 = format: functional, cell-based, Homo sapiens; settings: Homo sapiens, SCC-15;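 also: growth inhibition of SCC-15 cells, read out with a cell viability assay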
Description: SANGER: Inhibition of human SCC-15 cell growth in a cell viability assay.

SK-MEL-1 = format: functional, cell-based, Homo sapiens; settings: Homo sapiens, SK-MEL-1;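 also: growth inhibition of human SK-MEL-1 cells, read out by a cell viability assay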
Description: SANGER: Inhibition of human SK-MEL-1 cell growth in a cell viability assay.

HL-60 = format: functional, cell-based, Homo sapiens; settings: Homo sapiens, HL-60;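 also: growth inhibition of human HL-60 cells, read out with a cell viability assay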
Description: SANGER: Inhibition of human HL-60 cell growth in a cell viability assay.

ETK-1 = format: functional, cell-based, Homo sapiens; settings: Homo sapiens, ETK-1;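 also: growth inhibition of human ETK-1 cells, read out with a cell viability assay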
Description: SANGER: Inhibition of human ETK-1 cell growth in a cell viability assay.

DB = format: functional, cell-based, Homo sapiens; settings: Homo sapiens, DB
Description: SANGER: Inhibition of human DB cell growth in a cell viability assay.

MSTO-211H = format: functional, cell-based, Homo sapiens; settings: Homo sapiens, MSTO-211H
Description: SANGER: Inhibition of human MSTO-211H cell growth in a cell viability assay.

GI-ME-N = format: functional, cell-based, Homo sapiens; settings: Homo sapiens, GI-ME-N;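 also: growth inhibition of human GI-ME-N cells, read out with a cell viability assay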
Description: SANGER: Inhibition of human GI-ME-N cell growth in a cell viability assay.

IST-MEL1 = format: functional, cell-based, Homo sapiens; settings: Homo sapiens, IST-MEL1;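 also: growth inhibition of the cell line, read out with a cell viability assay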
Description: SANGER: Inhibition of human IST-MEL1 cell growth in a cell viability assay.

TGBC24TKB = format: functional, cell-based; settings: Homo sapiens;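 also: growth inhibition of human TGBC24TKB cells, read out with a cell viability assay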
Description: SANGER: Inhibition of human TGBC24TKB cell growth in a cell viability assay.

TGBC1TKB = format: functional, cell-based, Homo sapiens; settings: Homo sapiens, TGBC1TKB;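 also: growth inhibition of TGBC1TKB cells, read out by a cell viability assay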
Description: SANGER: Inhibition of human TGBC1TKB cell growth in a cell viability assay.

LB831-BLC = format: functional, cell-based, Homo sapiens; settings: Homo sapiens, LB831-BLC;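 also: growth inhibition of LB831-BLC cells, read out with a cell viability assay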
Description: SANGER: Inhibition of human LB831-BLC cell growth in a cell viability assay.

no-10 = format: functional, cell-based, Homo sapiens; settings: Homo sapiens;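 also: growth inhibition of no-10 cells, read out with a cell viability assay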
Description: SANGER: Inhibition of human no-10 cell growth in a cell viability assay.

LU-139 = format: functional, cell-based, Homo sapiens; settings: Homo sapiens, LU-139
Description: SANGER: Inhibition of human LU-139 cell growth in a cell viability assay.

EW-3 = format: functional, cell-based, Homo sapiens; settings: Homo sapiens, EW-3;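 also: cell viability assay read-out, IC50 reflects inhibition of growth of the EW-3 cells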
Description: SANGER: Inhibition of human EW-3 cell growth in a cell viability assay.

MN-60 = format: functional, cell-based, Homo sapiens; settings: Homo sapiens, MN-60;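 also: growth inhibition of the MN-60 cell line, determined with a cell viability assay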
Description: SANGER: Inhibition of human MN-60 cell growth in a cell viability assay.

K562 = format: functional, cell-based, Homo sapiens; settings: Homo sapiens, K562
Description: SANGER: Inhibition of human K-562 cell growth in a cell viability assay.

KP-N-YS = format: functional, cell-based, Homo sapiens; settings: Homo sapiens, KP-N-YS;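 also: cell viability assay measuring inhibition of cell line growth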
Description: SANGER: Inhibition of human KP-N-YS cell growth in a cell viability assay.

NCI-H1650 = format: functional, cell-based, Homo sapiens; settings: Homo sapiens, NCI-H1650;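 also: growth inhibition of human NCI-H1650 cells measured by a cell viability assay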
Description: SANGER: Inhibition of human NCI-H1650 cell growth in a cell viability assay.

KALS-1 = format: functional, cell-based, Homo sapiens; settings: Homo sapiens, KALS-1; read-out: IC50;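 also: growth inhibition of KALS-1 cells, determined with a cell viability assay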
Description: SANGER: Inhibition of human KALS-1 cell growth in a cell viability assay.

KU812 cell line = format: functional, cell-based, Homo sapiens; settings: Homo sapiens, KU812;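 also: growth inhibition of KU812 cells, read out with a cell viability assay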
Description: SANGER: Inhibition of human KU812 cell growth in a cell viability assay.

ES4 = format: functional, cell-based, Homo sapiens; settings: Homo sapiens, ES4;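 also: growth inhibition of human ES4 cells, read out by a cell viability assay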
Description: SANGER: Inhibition of human ES4 cell growth in a cell viability assay.

TE-11 = format: functional, cell-based; settings: Homo sapiens;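 also: growth inhibition of human TE-11 cells, read out by a cell viability assay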
Description: SANGER: Inhibition of human TE-11 cell growth in a cell viability assay.

RPMI-8866 = format: functional, cell-based, Homo sapiens; settings: Homo sapiens, RPMI-8866
Description: SANGER: Inhibition of human RPMI-8866 cell growth in a cell viability assay.

KS-1 = format: functional, cell-based; settings: Homo sapiens;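 also: growth inhibition of KS-1 cells, read out with a cell viability assay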
Description: SANGER: Inhibition of human KS-1 cell growth in a cell viability assay.

NCI-H446 = format: functional, cell-based, Homo sapiens; settings: Homo sapiens, NCI-H446;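 also: growth inhibition of NCI-H446 cells determined by a cell viability assay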
Description: SANGER: Inhibition of human NCI-H446 cell growth in a cell viability assay.

NOS-1 = format: functional, cell-based, Homo sapiens; settings: Homo sapiens, NOS-1;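 also: growth inhibition of the human NOS-1 cell line, read out with a cell viability assay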
Description: SANGER: Inhibition of human NOS-1 cell growth in a cell viability assay.

697 = format: functional, cell-based, Homo sapiens; settings: Homo sapiens
Description: SANGER: Inhibition of human 697 cell growth in a cell viability assay.

SF-539 = format: functional, cell-based, Homo sapiens; settings: Homo sapiens, SF-539;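 also: Read-out is a cell viability assay, with IC50 reflecting inhibition of cell growth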
Description: SANGER: Inhibition of human SF539 cell growth in a cell viability assay.

HT-144 = format: functional, cell-based, Homo sapiens; settings: Homo sapiens, HT-144
Description: SANGER: Inhibition of human HT-144 cell growth in a cell viability assay.

TGW = format: functional, cell-based, Homo sapiens; settings: Homo sapiens, TGW;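 also: growth inhibition of human TGW cells, read out with a cell viability assay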
Description: SANGER: Inhibition of human TGW cell growth in a cell viability assay.

GOTO = format: functional, cell-based, Homo sapiens; settings: Homo sapiens, GOTO;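 also: growth inhibition of GOTO cells, read out by a cell viability assay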
Description: SANGER: Inhibition of human GOTO cell growth in a cell viability assay.

RXF 393 = format: functional, cell-based, Homo sapiens; settings: Homo sapiens, RXF 393;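 also: growth inhibition of human RXF 393 cells, read out with a cell viability assay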
Description: SANGER: Inhibition of human RXF393 cell growth in a cell viability assay.

KNS-42 = format: functional, cell-based; settings: Homo sapiens;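 also: growth inhibition of KNS-42 cells, read out with a cell viability assay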
Description: SANGER: Inhibition of human KNS-42 cell growth in a cell viability assay.

KGN = format: functional, cell-based, Homo sapiens; settings: Homo sapiens, KGN;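 also: growth inhibition of KGN cells, read out with a cell viability assay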
Description: SANGER: Inhibition of human KGN cell growth in a cell viability assay.

VA-ES-BJ = format: functional, cell-based, Homo sapiens; settings: Homo sapiens, VA-ES-BJ;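 also: growth inhibition of the VA-ES-BJ cell line, read out by a cell viability assay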
Description: SANGER: Inhibition of human VA-ES-BJ cell growth in a cell viability assay.

NCI-H2126 = format: functional, cell-based, Homo sapiens; settings: Homo sapiens, NCI-H2126;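 also: growth inhibition of the cancer cell line, determined with a cell viability readout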
Description: SANGER: Inhibition of human NCI-H2126 cell growth in a cell viability assay.

JVM-2 = format: functional, cell-based, Homo sapiens; settings: Homo sapiens, JVM-2;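 also: growth inhibition of JVM-2 cells determined by a cell viability assay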
Description: SANGER: Inhibition of human JVM-2 cell growth in a cell viability assay.

KURAMOCHI = format: functional, cell-based, Homo sapiens; settings: Homo sapiens, KURAMOCHI;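 also: growth inhibition of KURAMOCHI cells, read out with a cell viability assay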
Description: SANGER: Inhibition of human KURAMOCHI cell growth in a cell viability assay.

EKVX = format: functional, cell-based, Homo sapiens; settings: Homo sapiens, EKVX;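 also: growth inhibition of human EKVX cells, read out with a cell viability assay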
Description: SANGER: Inhibition of human EKVX cell growth in a cell viability assay.

EM-2 = format: functional, cell-based, Homo sapiens; settings: Homo sapiens, EM-2;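 also: growth inhibition of EM-2 cells, read out with a cell viability assay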
Description: SANGER: Inhibition of human EM-2 cell growth in a cell viability assay.

ONS-76 = format: functional, cell-based, Homo sapiens; settings: Homo sapiens, ONS-76;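 also: growth inhibition of human ONS-76 cells, read out with a cell viability assay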
Description: SANGER: Inhibition of human ONS-76 cell growth in a cell viability assay.

BB49-HNC = format: functional, cell-based, Homo sapiens; settings: Homo sapiens, BB49-HNC;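 also: cell viability assay read-out, reported as inhibition of BB49-HNC cell growth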
Description: SANGER: Inhibition of human BB49-HNC cell growth in a cell viability assay.

CTB-1 = format: functional, cell-based, Homo sapiens; settings: Homo sapiens, CTB-1
Description: SANGER: Inhibition of human CTB-1 cell growth in a cell viability assay.

SW982 = format: functional, cell-based; settings: Homo sapiens;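 also: growth inhibition of SW982 cells, read out with a cell viability assay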
Description: SANGER: Inhibition of human SW982 cell growth in a cell viability assay.

HCC2218 = format: functional, cell-based, Homo sapiens; settings: Homo sapiens, HCC2218;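 also: cell viability assay read-out, with IC50 given as the concentration that inhibits growth of the cell line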
Description: SANGER: Inhibition of human HCC2218 cell growth in a cell viability assay.

ES5 = format: functional, cell-based, Homo sapiens; settings: Homo sapiens, ES5;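 also: growth inhibition of human ES5 cells, read out by a cell viability assay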
Description: SANGER: Inhibition of human ES5 cell growth in a cell viability assay.

MZ1-PC = format: functional, cell-based, Homo sapiens; settings: Homo sapiens, MZ1-PC;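 also: cell viability assay measuring growth inhibition of human MZ1-PC cells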
Description: SANGER: Inhibition of human MZ1-PC cell growth in a cell viability assay.

SH-4 = format: functional, cell-based; settings: Homo sapiens;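 also: growth inhibition of SH-4 cells, read out with a cell viability assay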
Description: SANGER: Inhibition of human SH-4 cell growth in a cell viability assay.

Mo = format: functional, cell-based, Homo sapiens; settings: Homo sapiens, Mo
Description: SANGER: Inhibition of human Mo-T cell growth in a cell viability assay.

RCC10RGB = format: functional, cell-based, Homo sapiens; settings: Homo sapiens, RCC10RGB;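 also: growth inhibition of human RCC10RGB cells, read out by a cell viability assay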
Description: SANGER: Inhibition of human RCC10RGB cell growth in a cell viability assay.

MC116 = format: functional, cell-based, Homo sapiens; settings: Homo sapiens, MC116;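 also: growth inhibition of MC116 cells, read out with a cell viability assay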
Description: SANGER: Inhibition of human MC116 cell growth in a cell viability assay.

**Q.** Which results are given for `OC[C@H](Cc1ccccc1)Nc1nc(Oc2ccc3c(c2)CCC3)nc2c1ncn2Cc1ccc(-c2ccccc2)cc1`?
**A.** IC50 (SCC-15): > 10.2 µM; IC50 (SK-MEL-1): > 10.2 µM; IC50 (HL-60): > 10.2 µM; IC50 (ETK-1): > 10.2 µM; IC50 (DB): 6.68 µM; IC50 (MSTO-211H): > 10.2 µM; IC50 (GI-ME-N): > 10.2 µM; IC50 (IST-MEL1): > 10.2 µM; IC50 (TGBC24TKB): > 10.2 µM; IC50 (TGBC1TKB): > 10.2 µM; IC50 (LB831-BLC): > 10.2 µM; IC50 (no-10): > 10.2 µM; IC50 (LU-139): > 10.2 µM; IC50 (EW-3): > 10.2 µM; IC50 (MN-60): > 10.2 µM; IC50 (K562): > 10.2 µM; IC50 (KP-N-YS): 7.6 µM; IC50 (NCI-H1650): > 10.2 µM; IC50 (KALS-1): > 10.2 µM; IC50 (KU812 cell line): 0.637 µM; IC50 (ES4): 8.51 µM; IC50 (TE-11): > 10.2 µM; IC50 (RPMI-8866): > 10.2 µM; IC50 (KS-1): > 10.2 µM; IC50 (NCI-H446): > 10.2 µM; IC50 (NOS-1): > 10.2 µM; IC50 697: 3.32 µM; IC50 (SF-539): > 10.2 µM; IC50 (HT-144): 8.54 µM; IC50 (TGW): > 10.2 µM; IC50 (GOTO): 5.86 µM; IC50 (RXF 393): > 10.2 µM; IC50 (KNS-42): > 10.2 µM; IC50 (KGN): > 10.2 µM; IC50 (VA-ES-BJ): 2.57 µM; IC50 (NCI-H2126): > 10.2 µM; IC50 (JVM-2): > 10.2 µM; IC50 (KURAMOCHI): 3.82 µM; IC50 (EKVX): > 10.2 µM; IC50 (EM-2): > 10.2 µM; IC50 (ONS-76): 8.58 µM; IC50 (BB49-HNC): > 10.2 µM; IC50 (CTB-1): > 10.2 µM; IC50 (SW982): > 10.2 µM; IC50 (HCC2218): > 10.2 µM; IC50 (ES5): > 10.2 µM; IC50 (MZ1-PC): 6.97 µM; IC50 (SH-4): > 10.2 µM; IC50 (Mo): > 10.2 µM; IC50 (RCC10RGB): > 10.2 µM; IC50 (MC116): > 10.2 µM

**Q.** For `COc1ccc(N(C(=O)Oc2c(C)cccc2C)c2ccnc(Nc3ccc(N4CCN(C)CC4)cc3)n2)c(OC)c1`, which IC50 (SCC-15) is on record?
**A.** > 5.12 µM

**Q.** What about the IC50 (SK-MEL-1) of the same compound?
**A.** > 5.12 µM

**Q.** And the IC50 (HL-60)?
**A.** > 5.12 µM

**Q.** What about the IC50 (ETK-1) of the same compound?
**A.** > 5.12 µM

**Q.** What about the IC50 (DB) of the same compound?
**A.** > 5.12 µM

**Q.** What about the IC50 (MSTO-211H) of the same compound?
**A.** > 5.12 µM

**Q.** And the IC50 (GI-ME-N)?
**A.** 3.25 µM

**Q.** What about the IC50 (IST-MEL1) of the same compound?
**A.** > 5.12 µM

**Q.** What about the IC50 (TGBC24TKB) of the same compound?
**A.** 1.04 µM

**Q.** What about the IC50 (TGBC1TKB) of the same compound?
**A.** > 5.12 µM

**Q.** And the IC50 (LB831-BLC)?
**A.** 0.127 µM

**Q.** And the IC50 (no-10)?
**A.** > 5.12 µM

**Q.** And the IC50 (LU-139)?
**A.** > 5.12 µM

**Q.** What about the IC50 (EW-3) of the same compound?
**A.** > 5.12 µM

**Q.** What about the IC50 (MN-60) of the same compound?
**A.** > 5.12 µM

**Q.** And the IC50 (K562)?
**A.** < 0.02 µM

**Q.** What about the IC50 (KP-N-YS) of the same compound?
**A.** 4.92 µM

**Q.** And the IC50 (NCI-H1650)?
**A.** > 5.12 µM

**Q.** And the IC50 (KALS-1)?
**A.** > 5.12 µM

**Q.** And the IC50 (KU812 cell line)?
**A.** > 5.12 µM

**Q.** What about the IC50 (ES4) of the same compound?
**A.** > 5.12 µM

**Q.** What about the IC50 (TE-11) of the same compound?
**A.** > 5.12 µM

**Q.** What about the IC50 (RPMI-8866) of the same compound?
**A.** > 5.12 µM

**Q.** And the IC50 (KS-1)?
**A.** 0.0776 µM

**Q.** What about the IC50 (NCI-H446) of the same compound?
**A.** > 5.12 µM

**Q.** And the IC50 (NOS-1)?
**A.** 0.95 µM

**Q.** What about the IC50 697 of the same compound?
**A.** 3.4 µM

**Q.** And the IC50 (SF-539)?
**A.** > 5.12 µM

**Q.** And the IC50 (HT-144)?
**A.** 1.45 µM

**Q.** And the IC50 (TGW)?
**A.** > 5.12 µM

**Q.** What about the IC50 (GOTO) of the same compound?
**A.** > 5.12 µM

**Q.** What about the IC50 (RXF 393) of the same compound?
**A.** 0.106 µM

**Q.** What about the IC50 (KNS-42) of the same compound?
**A.** > 5.12 µM

**Q.** What about the IC50 (KGN) of the same compound?
**A.** 1.05 µM

**Q.** And the IC50 (VA-ES-BJ)?
**A.** 0.463 µM

**Q.** And the IC50 (NCI-H2126)?
**A.** > 5.12 µM

**Q.** And the IC50 (JVM-2)?
**A.** > 5.12 µM

**Q.** And the IC50 (KURAMOCHI)?
**A.** 2.24 µM

**Q.** What about the IC50 (EKVX) of the same compound?
**A.** > 5.12 µM

**Q.** What about the IC50 (EM-2) of the same compound?
**A.** < 0.02 µM

**Q.** And the IC50 (ONS-76)?
**A.** > 5.12 µM

**Q.** What about the IC50 (BB49-HNC) of the same compound?
**A.** > 5.12 µM

**Q.** What about the IC50 (CTB-1) of the same compound?
**A.** > 5.12 µM

**Q.** What about the IC50 (SW982) of the same compound?
**A.** 0.858 µM

**Q.** And the IC50 (HCC2218)?
**A.** > 5.12 µM

**Q.** What about the IC50 (ES5) of the same compound?
**A.** > 5.12 µM

**Q.** And the IC50 (MZ1-PC)?
**A.** 0.227 µM

**Q.** And the IC50 (SH-4)?
**A.** 2.12 µM

**Q.** And the IC50 (Mo)?
**A.** > 5.12 µM

**Q.** And the IC50 (RCC10RGB)?
**A.** 0.426 µM

**Q.** What about the IC50 (MC116) of the same compound?
**A.** 2.86 µM
